# Key:
# p38 = assay: Eurofins kinase selectivity profile, p38; format: biochemical, human
# Procedure: Subsequently, to ascertain whether the high potency of compound 11 was specific for MK2, an additional 380 human recombinant protein kinases were screened.
# To assess the impact of various compounds on MK2 kinase activity, we utilized the ADP‐Glo Assay Kit (Promega) following the manufacturer's instructions. Luminescence measurements were taken using a SpectraMax Paradigm reader. The inhibition percentage was calculated using the following formula: ((specific signalDMSO control − specific signal inhibitor)/(specific signalDMSO control)) × 100%. The IC50 values were determined employing dose–response curve fitting via Prism (Graph Pad). Additionally, Eurofins company (Celle Lévescault) conducted the analysis on compound 11’s inhibitory activity against 380 other human recombinant kinases at various concentrations.
# [1] = test system: p-Hsp27 (Ser82) and p-MK2 (T334) in THP-1 derived macrophages; assay: Western blot of MK2 signaling in LPS-stimulated THP-1 derived macrophages; format: cell-based, human; settings: 1 h preincubation, LPS 100 ng/mL 30 min
# Procedure: FIGURE 4 Targeting cellular MK2 signaling with irreversible inhibition by compound 11. (A and B) RT‐PCR analysis of IL‐1β, TNF‐α, and IL‐6 expression in Lipopolysaccharides (LPS)‐stimulated THP‐1 (A) and RAW264.7 (B) Cells, with pre‐treatment of compound 11 for 3 h followed by LPS (3 h) stimulation. (C) The inhibitory effects of compound 11 on TNF‐α and IL‐6 production in LPS‐stimulated RAW264.7 macrophages for 24 h, measured by ELISA. (D and E) Compound 11, alongside CC‐99677 and PF‐3644022, suppressed MK2 pathway activation, validated through western blot analysis post‐LPS stimulation. Cells were preincubated with the specified compounds for 1 h prior to LPS stimulation (100 ng/mL, 30 min). (F) Distinguishes the mode of action between compound 11 and CC‐99677. The complex structure of a small molecule and MK2 (3R2Y) with the same parent nucleus as compound 11 is shown in cyans, and the complex structure of a small molecule and MK2 (3FYJ) with the same parent nucleus as CC‐99677 is shown in orange. (G–I) The effect of indicated inhibitor on Hsp27 phosphorylation following inhibitor washout. Cells were pretreated with indicated compounds for 1 h and then washed to remove free compound and incubated for a further indicated time before activation with LPS. In (A–C), LPS (100 ng/mL) served as the stimulation control, while untreated cells were the baseline control. The data represent as mean ± SD from triplicates, with statistical analysis conducted via one‐way analysis of variance (ANOVA) (^## p < 0.01, ^### p < 0.001 vs. stimulation control; ^***p < 0.001 vs. baseline control).
# Next, the efficacy of compound 11 in cellular MK2 signaling inhibition was evaluated by examining both p‐MK2 and p‐Hsp27 at Ser82 levels, the latter being a direct downstream substrate of p‐MK2. […] We try to explore this interesting phenomenon by superimposing the complex crystal structure (3FYJ) that harboring the same skeleton as CC‐99677 (Figure 4F). […] In that way, CC‐99677 binding to MK2 kinase after pre‐incubation with cells and after LPS stimulation may cause the difference in the spatial conformation of MK2 kinase domain, which may make p38 cannot properly bind to MK2, resulting in a decrease in the phosphorylation of MK2.
# After the treatment outlined in the figure legends, cells were lysed using 1× sodium dodecyl sulfate (SDS) solution. The lysates were then subjected to SDS‐polyacrylamide gel electrophoresis for separation, followed by transferring onto nitrocellulose membranes. […] Protein bands were detected using an enhanced chemiluminescence detection reagent (Thermo Fisher Scientific).
# [2] = test system: CD206 and Arg-1 expression in BMDM; assay: Flow cytometry of CD206 and Arg-1 in IL-4/IL-13 stimulated BMDM; format: cell-based, mouse; settings: IL-4/IL-13, 48 h
# Excerpt: A previous study has reported that MK2 fostered M2‐like polarization of TAMs, driving a protumor and proangiogenic phenotype which in turn accelerates tumor progression.[21] We thus assessed the influence of compound 11 on macrophage polarization and function. Our experiments used human THP‐1 monocyte induced macrophages, mouse RAW264.7 macrophages, and mouse bone marrow‐derived macrophages (BMDM). These cells were induced into M2‐like macrophages using the classic IL‐4 and IL‐13 stimuli.
# FIGURE 5 Inhibition of pro‐tumorigenic M2‐like polarization in macrophages by compound 11. (A–C) RT‐PCR analysis highlights the impact of compound 11 on MRC1 and ARG‐1 mRNA expression in various macrophage cells treated with IL‐4/IL‐13 alone or combined with compound 11 for 12 h or 24 h. (D) CD206 and Arg‐1 expression in bone marrow‐derived macrophages (BMDM) cells via flow cytometry post 48 h treatment of compound 11 and IL‐4/IL‐13. (E) The treatment effects of compound 11 in THP‐1 cells using western blot analysis. Cells were pretreated with compound 11 for 1 h and followed by IL‐4/IL‐13 treatment (30 min). (F) The influence of MK2 siRNA on MRC1 and ARG‐1 mRNA expression in THP‐1 cells by RT‐PCR analysis post‐IL‐4/IL‐13 stimulation (12 h). […] Data are shown as the mean ± SD. ^* p < 0.05; ^*** p < 0.001 versus the vehicle group, determined by unpaired t test. […]
compound,measurement,setting,value
C=CC(=O)Nc1cc(-c2cc(-c3cc4c([nH]3)CCNC4=O)ccn2)ccc1OC(F)(F)F [compound 11],selectivity for MK2 over p38,p38,over 434 fold
same,effect on MK2 phosphorylation at T334 site,[1],did not inhibit
same,effect on phosphorylation of Hsp27 (Ser82),[1],significantly inhibited
same,effect on expression levels of surface CD206 and Arg-1,[2],suppress

# — PMC11233931, “Remodeling tumor‐associated macrophage for anti‐cancer effects by rational design of irreversible inhibition of mitogen‐activated protein kinase‐activated protein kinase 2” (MedComm, 2024)
